{"source": "patent US20040157280A1", "about": "“Antibody mediated ozone generation” (priority 2001, published 2004)", "key": {"[1]": {"system": "E. coli", "test": "Bactericidal assay, E. coli (strain not singled out)", "type": "cell-based", "settings": "for bactericidal activity (in words): HPIX 40 μM, white light 1 h, 4° C.", "method": "(§1) In a typical experiment, a culture of E. coli (in log phase growth, OD600=0.2-0.3) was repeatedly pelleted (3×3,500 rpm) and resuspended in PBS (pH 7.4). The PBS suspended cells were then added to glass vials and cooled to 4° C. Hematoporphyrin IX (40 μM) and antibody (20 μM) were added and the vials were either placed on a light box (visible light, 2.8 mW cm^−2) or in the dark at 4° C. and incubated for 1 h. Viability was determined by recovery of colony forming units (CFUs) on agar plates. Each experiment was performed at least in duplicate.\nas §1, with “washed in PBS by pelleting” for “pelleted”, “rpm) the cells” for “rpm)”, “resuspending them” for “resuspended”"}, "[2]": {"system": "human neutrophils (PMNs)", "test": "Oxidation of indigo carmine 1 by activated human neutrophils", "type": "cell-based", "settings": "indigo carmine 30 μM, PMNs 1.5×10^7 cell/mL, phorbol myristate 1 μg/mL, 37° C.", "method": "FIG. 20A illustrates the time course of oxidation of indigo carmine 1 (30 μM) (Δ) and formation of 2 (▪) by human neutrophils (PMNs, 1.5×10^7 cell/mL) activated with phorbol myristate (1 μg/mL) in PBS (pH 7.4) at 37° C. No oxidation of indigo carmine 1 occurs with PMNs that are not activated (data not shown). Neutrophils were prepared as previously described. Hypochlorous acid (HOCl) is an oxidant known to be produced by neutrophils.\nHuman neutrophils were prepared as described by M. Markert, P. C. Andrews, and B. M. Babior Methods Enzymol. 105, 358 (1984). Following activation with phorbol myristate (1 μg/mL), the neutrophils (1.5×10^7 cells/mL) produced an oxidant species that oxidatively cleaves indigo carmine 1 to isatin sulfonic acid 2 (FIG. 19 and FIG. 20B). Hypochlorous acid (HOCI) is an oxidant that is known to be produced by neutrophils."}, "[3]": {"test": "Long-term near-UV photo-production of H2O2 with catalase cycles", "type": "biochemical", "method": "FIG. 8A illustrates the production of H2O2 by immunoglobulins and non-immunoglobulin proteins. Assays were performed by near-UV irradiation (312 nm, 800 μW cm^−2) of individual antibody/protein samples (100 μL, 6.7 μM) in phosphate-buffered saline (PBS) [10 mM sodium phosphate, 150 mM NaCl (pH 7.4)] in a sealed glass vial on a transilluminator (Fischer Biotech) under ambient aerobic conditions at 20EC. Aliquots (10 μL) were removed at timed intervals throughout the assay. H2O2 concentration was determined by the amplex red method. […]\nFIG. 8B illustrates the long-term production of H2O2 by sheep poly-IgG (6.7 μM, 200 μL). […] H2O2 concentration was measured as described in FIG. 8A. […]\nFIG. 8E illustrates the long-term inhibition of antibody photo-production of H2O2 by H2O2 and complete re-establishment of activity after removal of H2O2. […] H2O2 fo rmation throughout the assay was measured by the amplex red assay. […]\nFIG. 11B provides the effect of chloride ion on antibody-mediated photo-production of H2O2. […] Aliquots (10 μL) were removed throughout the assay and the H2O2 concentration determined by the amplex red assay. […]"}, "[4]": {"test": "Hydrogen peroxide production by UV-irradiated antibody/protein (Amplex Red assay)", "type": "biochemical", "settings": "UV irradiation in PBS", "method": "Antibody/Protein Irradiation. Unless otherwise stated, the assay solution (100 μl, 6.7 μM protein in PBS, pH 7.4) was added to a glass vial, sealed with a screw-cap, and irradiated with either UV (312 nm, […] Fischer-Biotech transilluminator) or visible light.\nQuantitative Assay for Hydrogen Peroxide. An aliquot (20 μl) from the protein solution was removed and added into a well of a 96-well microtiter plate (Costar) containing reaction buffer (80 μl). Working solution (100 μl/400 μM Amplex Red reagent ½ units/ml horseradish peroxidase) was then added, and the plate was incubated in the dark for 30 min. The fluorescence of the well components was then measured using a CytoFluor Multiwell Plate Reader (Series 4000, PerSeptive Biosystems, Framingham, Mass.; Ex/Em: 530/580 nm). The hydrogen peroxide concentration was determined using a standard curve. All experiments were run in duplicate, and the rate is quoted as the mean of at least two measurements.\nDenaturation. IgG 19G12 (100 μl, 6.7 μM) was heated to 100EC in an Eppendorf tube for 2 min. The resultant solution was transferred to a glass, screw-cap vial and irradiated with UV light for 30 min. The concentration of H2O2 was determined after 30 min."}}, "note": "Entries after “also recorded” stand apart in the source; their conditions may differ.", "data": [{"molecule": "CC1=C(CCC(=O)O)c2cc3[nH]c(cc4nc(cc5[nH]c(cc1n2)c(C)c5C(C)O)C(C)=C4C(C)O)c(C)c3CCC(=O)O", "note": "(stereo not drawn) [hematoporphyrin IX]", "values": [{"measurement": "bactericidal activity (in words)", "setting": "[1]", "value": "negligible bactericidal activity"}]}, {"molecule": "O=C1/C(=C2\\Nc3ccc(S(=O)(=O)O)cc3C2=O)Nc2ccc(S(=O)(=O)O)cc21", "note": "[indigo carmine 1, indigo carmine]", "values": [{"measurement": "isatin sulfonic acid 2 formed", "setting": "[2]", "value": "25.1 ± 0.3", "unit": "µM"}]}, {"molecule": "N[C@@H](Cc1c[nH]c2ccccc12)C(=O)O", "note": "[tryptophan]", "values": [{"measurement": "production of H2O2 during near-UV irradiation", "setting": "[3]; tryptophan 20 μM", "value": "ca. 0.5 mole equivalents"}]}, {"molecule": "bovine serum albumin: bovine serum albumin", "values": [{"measurement": "bactericidal activity (in words)", "setting": "[1]", "value": "no bacterial killing"}]}, {"molecule": "catalase", "values": [{"measurement": "protection against the bactericidal activity of non-specific antibodies", "setting": "[1]; catalase 13 mU/mL", "value": "complete protection; also recorded: completely attenuated the bactericidal activity"}]}, {"molecule": "chick ovalbumin: chick-egg ovalbumin from Sigma", "values": [{"measurement": "ability to reduce ^1O2 / generate H2O2 (in words)", "setting": "[4]", "value": "one of the most efficient proteins at reducing ^1O2"}]}, {"molecule": "superoxide dismutase: enzyme obtained from Sigma", "values": [{"measurement": "ability to reduce ^1O2 / generate H2O2 (in words)", "setting": "[4]", "value": "the same as irradiation of PBS alone; also recorded: do not reduce ^1O2"}]}, {"molecule": "β-galactosidase: enzyme from Sigma; most efficient non-immunoglobulin protein at H2O2 photo-production", "values": [{"measurement": "H2O2 generated by photo-production", "setting": "[3]; near-UV, from its 39 Trp residues", "value": 5.9, "unit": "mol eq."}]}, {"molecule": "RNase A: ribonuclease from Amersham Pharmacia (protein, UniProt P61823 27-150, looked up) Ribonuclease pancreatic: KETAAAKFERQHMDSSTSAASSSNYCNQMMKSRNLTKDRCKPVNTFVHESLADVQAVCSQKNVACKNGQTNCYQSYSTMSITDCRETGSSKYPNCAYKTTQANKHIIVACEGNPYVPVHFDASV", "values": [{"measurement": "ability to reduce ^1O2 / generate H2O2 (in words)", "setting": "[4]", "value": "do not reduce ^1O2"}]}]}
